# PubChem BioAssay (NCI)
#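 How tested: cells in 96-well plates exposed to compound for 48 hours at five concentrations. TGI denotes the concentration required for complete inhibition of growth.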
# Assays:
# Assay in all cases: inhibition of tumour cell growth, NCI panel, 48 h
# HOP-18 NSCLC = tested on: HOP-18 NSCLC
# KM20L2 colon = tested on: KM20L2 colon
# HCT-116 colon = tested on: HCT-116 colon
# OVCAR-8 ovarian = tested on: OVCAR-8 ovarian
# SF-268 CNS = tested on: SF-268 CNS
# SK-MEL-2 melanoma = tested on: SK-MEL-2 melanoma
# M19-MEL melanoma = tested on: M19-MEL melanoma
# SNB-78 CNS = tested on: SNB-78 CNS
# SNB-75 CNS = tested on: SNB-75 CNS
# M14 melanoma = tested on: M14 melanoma
Structure (SMILES),TGI (HOP-18 NSCLC) [µM],TGI (KM20L2 colon) [µM],TGI (HCT-116 colon) [µM],TGI (OVCAR-8 ovarian) [µM],TGI (SF-268 CNS) [µM],TGI (SK-MEL-2 melanoma) [µM],TGI (M19-MEL melanoma) [µM],TGI (SNB-78 CNS) [µM],TGI (SNB-75 CNS) [µM],TGI (M14 melanoma) [µM]
COc1c(Br)cc(CC(N)=O)c(O)c1Br,> 100,> 100,> 100,> 100,> 100,> 100,> 100,> 100,> 100,–
C=CCOCCCCC(C(C)=O)C(=O)OC (centres undefined),> 100,> 100,> 100,> 100,> 100,> 100,> 100,> 100,> 100,> 100
O=C(O)C(CS)N=c1c2ccccc2n(O)c2ccccc12 (centres undefined),> 100,> 100,> 100,> 100,> 100,> 100,> 100,> 100,> 100,> 100
COC(=O)/C=C/c1cc(OC)c(OC)c(OC)c1,> 100,> 100,> 100,> 100,> 100,> 100,> 100,–,> 100,> 100
O=C(O)C(CO)NC(=O)n1c2ccccc2c2ccccc21 (centres undefined),> 100,–,> 100,> 100,> 100,> 100,> 100,–,–,–
Cc1cccc(C)c1NC(=O)C(=O)C1C(=O)NC(=O)NC1=O,> 100,> 100,> 100,> 100,> 100,–,> 100,> 100,–,> 100
O=C1NC2OC(CO)C(O)C(O1)C2O (centres undefined),> 100,> 100,–,> 100,> 100,> 100,> 100,> 100,> 100,> 100
O=C(CC1=NCCN1)c1ccccc1,> 750,> 750,> 750,> 750,> 750,> 750,> 750,> 750,> 750,–
CC(C)(C)C1CCC2(CC1)c1[nH]c3ccccc3c1C1(CCC(C(C)(C)C)CC1)c1[nH]c3ccccc3c12 (centres undefined),> 100,> 100,> 100,> 100,> 100,> 100,> 100,> 100,> 100,> 100
CCOC(=O)C1=C(OC(OCC)C(CC)[Se]c2ccccc2)CCCC1 (centres undefined),86.4,37.3,45,42.1,41.6,43,33,> 100,54.8,34.2
COC1(OC)CCCCC2c3cccc(OC(C)=O)c3C21OC(C)=O (centres undefined),> 100,–,> 100,> 100,> 100,> 100,> 100,> 100,> 100,> 100
